Measurements as given in patent US20120178815A1, “Compositions of (-)-E-10-OH-NT and Methods for Their Synthesis and Use” (Adolor Corporation, priority 2007, published 2012).
Several values for one entry are separate records, joined by “and”; a condition that tells them apart may be missing. Equal entries are not always repeated. Entries after “also recorded” stand apart in the source; their conditions may differ.

Legend:
[1] = target: T1, human dopamine transporter (hDAT) (Homo sapiens, UniProt Q01959); assay: DA transporter competitive binding assay, [3H]BTCP; settings: for inhibition at 10 µM: read-out: Monoamine Transporter Affinity, DA, % inhib at 10 μM; for Ki: read-out: Monoamine Transporter Affinity, DA, Ki
T1 construct: expressed in transfected cells; host or cells: CHO cells (membranes)
Protocol: For the DA transporter binding assay, [^3H]N-[1-(2-benzo[b]thiophenyl)cyclohexyl]-piperidine ([^3H]BTCP) (4.0 nM) was incubated for 2 hr at 4° C. with membranes prepared from Chinese hamster ovary (CHO) cells heterologously expressing the cloned human dopamine transporter (hDAT). Various concentrations of test compound were added and bound radioactivity was determined by scintillation spectroscopy. Non-specific binding was defined as binding that occurred in the presence of 10 μM BTCP. The Ki values for the various test compounds were determined using standard methods.

[2] = tested on: L5 SNL rats, tactile allodynia; assay: L5-Single Nerve Ligation model of neuropathic pain (von Frey); type: in vivo, rat; settings: 30 mg/kg; for antiallodynic activity: i.p.
Protocol: Protocol. […] The test animals were placed in a Plexiglas chamber (10 cm×20 cm×25 cm) and habituated for 15 minutes. The chamber was positioned on top of a mesh screen so that von Frey monofilaments could be presented to the plantar surface of both hindpaws. Measurement of tactile sensitivity for each hindpaw were obtained using the up/down method (Dixon, 1980) with seven Frey monofilaments (0.4, 1, 2, 4, 6, 8 and 15 grams). Each trial started with a von Frey force of 2 grams delivered to the right hindpaw for approximately 1-2 seconds and then the left hindpaw. If there was no withdrawal response, the next higher force was delivered. If there was a response, the next lower force was delivered. This procedure was performed until no response was made at the highest force (15 grams) or until four stimuli were administered following the initial response. Each test group contained 8 animals. The sham-operated control group, which were operated on but not subject to nerve ligation, contained 4 animals. All animals were tested at 60 minutes, and 240 minutes, post-administration of test compounds.
The 50% paw withdrawal threshold for each paw was calculated using the following formula: [Xth] log=[vFr] log+ky where [vFr] is the force of the last von Frey used, k=0.2249 which is the average interval (in log units) between the von Frey monofilaments, and y is a value that depends upon the pattern of withdrawal responses (Dixon, 1980). […] Testing for tactile sensitivity was performed twice and the mean 50% withdrawal value assigned as the tactile sensitivity for the right and left paws for each animal.
The E-10-OH-NT compounds were administered as either a maleate or succinate salt. AT was administered as a hydrochloride salt. Dosage amounts are based on the amount of free base. The test animals were placed in a Plexiglas chamber (10 cm×20 cm×25 cm) and habituated for 15 minutes. The chamber was positioned on top of a mesh screen so that von Frey monofilaments could be presented to the plantar surface of both hindpaws. Measurement of tactile sensitivity for each hindpaw were obtained using the up/down method (Dixon, 1980) with seven Frey monofilaments (0.4, 1, 2, 4, 6, 8 and 15 grams). Each trial started with a von Frey force of 2 grams delivered to the right hindpaw for approximately 1-2 seconds and then the left hindpaw. If there was no withdrawal response, the next higher force was delivered. If there was a response, the next lower force was delivered. This procedure was performed until no response was made at the highest force (15 grams) or until four stimuli were administered following the initial response. Each test group contained 8 animals. The sham-operated control group, which were operated on but not subject to nerve ligation, contained 4 animals. […]

[3] = tested on: Sprague-Dawley rats, forced swim behaviour; assay: Rat Forced Swim Test of depression; type: in vivo; settings: for amount of time spent climbing: 3-30 mg/kg IP
Text: Protocol: Male Sprague-Dawley rats (approximately 200 g) are placed in a tank of room temperature water for a fifteen minute practice swim. Every five seconds during the first five minutes of the practice swim, the rats are rated as immobile (floating with motion needed to keep head above the water), swimming (movement across the swim), or climbing (actively trying to climb out of the tank of water, upward directed movements of the forepaws). The percentage of time the rats spent in each of these responses is calculated.
Approximately 24 h after the practice swim, the rats are treated with vehicle or test compound and placed in the tank for a 5 minute swim. As was the case with the practice swim, the rats are rated as immobile, swimming, or climbing during the test swim and the percentage of time spent in each of these responses is calculated. The data are analyzed by one-way ANOVA with post-hoc analysis to compare the behavioral response after vehicle treatment to the behavioral response after drug treatment for each of the three behavioral responses. The level of significance is set at p<0.05.
The percent of time spent immobile, swimming, and climbing (actively trying to scale the sides of the swim tank) in the test swim is shown in FIGS. 15 A, B, and C.

[4] = target: T2, human muscarinic receptor M4 (Homo sapiens, UniProt P08173); assay: Muscarinic M4 receptor binding, [3H]4-DAMP; settings: read-out: Affinity for Muscarinic Receptors, M4, Ki
T2 construct: expressed in transfected cells; host or cells: CHO cells (membranes)
T2 sequence (P08173 1-479): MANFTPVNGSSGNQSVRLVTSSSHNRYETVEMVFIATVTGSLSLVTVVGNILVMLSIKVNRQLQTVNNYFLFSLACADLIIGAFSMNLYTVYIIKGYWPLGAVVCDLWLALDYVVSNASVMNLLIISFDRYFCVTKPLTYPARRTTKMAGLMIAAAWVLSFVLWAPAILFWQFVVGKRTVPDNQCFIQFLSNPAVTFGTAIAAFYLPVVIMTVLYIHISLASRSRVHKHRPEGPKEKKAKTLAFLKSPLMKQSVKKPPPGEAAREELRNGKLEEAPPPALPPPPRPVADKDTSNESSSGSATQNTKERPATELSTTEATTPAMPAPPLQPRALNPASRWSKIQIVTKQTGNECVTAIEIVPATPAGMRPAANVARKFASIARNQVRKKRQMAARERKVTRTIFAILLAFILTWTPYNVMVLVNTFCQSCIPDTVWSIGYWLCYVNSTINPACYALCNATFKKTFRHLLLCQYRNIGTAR
Protocol: Protocol. […] Bound radioactivity was determined by scintillation spectroscopy. Non-specific binding was defined as the amount of bound radioligand in the presence of 1.0 μM atropine. Radioligand for the M1 receptor was [^3H]pirenzepine (2 nM). Radioligand for the M2 receptor was [^3H]AF-DX384 (2 nM). Radioligand for the M3, M4, and M5 receptors was [^3H]4-DAMP.

[5] = tested on: rotarod performance in rats; assay: Rat rotarod assay of sedation; type: in vivo; settings: for peak deficit in rotarod performance: 30 mg/kg, i.p., peak at 30 minutes; for ED50 for impairment of rotarod performance: IP
Protocol: Protocol. The rat rotarod assay is commonly used to assess sedation associated with chemical drugs. […] Once the rats were in position, the timers were set to zero and the rotarod switched to accelerating mode. The rotarod accelerated from 4 to 40 rpm over a five-minute interval. The timers automatically turned off when the rats fell from the rotating drum, recording a latency to fall in seconds. […] The performance score was recorded in seconds for each interval. The baseline rotarod performance score was the latency to fall off the rotarod on the third training session. Baselines must have been greater than or equal to 60 seconds duration for the rat to be included in the experiment.

T1 sequence (Q01959 whole entry): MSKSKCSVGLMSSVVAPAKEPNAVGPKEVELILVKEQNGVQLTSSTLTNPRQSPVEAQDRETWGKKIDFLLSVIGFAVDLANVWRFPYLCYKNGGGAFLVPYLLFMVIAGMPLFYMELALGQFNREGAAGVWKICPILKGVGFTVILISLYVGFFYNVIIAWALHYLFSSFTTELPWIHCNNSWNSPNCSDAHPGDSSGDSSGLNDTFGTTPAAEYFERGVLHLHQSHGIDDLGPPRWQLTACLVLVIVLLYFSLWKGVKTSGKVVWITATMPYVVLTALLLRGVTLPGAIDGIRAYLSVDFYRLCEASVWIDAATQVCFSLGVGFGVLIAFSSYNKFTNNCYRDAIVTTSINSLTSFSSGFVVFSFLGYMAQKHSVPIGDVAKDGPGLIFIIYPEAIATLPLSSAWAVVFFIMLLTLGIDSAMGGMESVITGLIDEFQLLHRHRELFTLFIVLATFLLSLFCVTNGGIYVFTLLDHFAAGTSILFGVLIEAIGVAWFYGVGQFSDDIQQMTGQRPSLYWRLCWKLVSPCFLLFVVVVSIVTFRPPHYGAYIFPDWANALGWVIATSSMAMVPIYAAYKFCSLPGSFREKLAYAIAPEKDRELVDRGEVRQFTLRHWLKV

Structure (SMILES) | inhibition at 10 µM [1] | Ki [1] | antiallodynic activity [2] | activity in the forced swim test ([3]; doses up to 30 mg/kg IP) | Ki [4] | antiallodynic activity, oral ([2]; p.o. and 60 mg/kg p.o.) | increase in time spent swimming ([3]; 10 mg/kg IP) | increase in time spent swimming ([3]; 30 mg/kg IP) | amount of time spent climbing [3] | impairment of rotarod performance ([5]; 30 mg/kg IP, rats (Example 17)) | peak deficit in rotarod performance ([5]; rats) | ED50 for impairment of rotarod performance ([5]; rats) | maximal impairment of rotarod performance ([5]; 100 mg/kg IP, rats)
CNCC/C=C1\c2ccccc2C[C@H](O)c2ccccc21 (stereo in doubt) [(+)-E-10-OH-NT] | 25% | > 1000 nM | comparable to that of the vehicle-only control | not active | 390 nM |  |  |  |  |  |  |  | 
CNCC/C=C1\c2ccccc2C[C@@H](O)c2ccccc21 (stereo in doubt) [(−)-E-10-OH-NT] | 3% | > 1000 nM | statistically significant over that observed for the vehicle-treated control group; also recorded: greater than that observed for the vehicle-treated control group |  | 170 nM | greater than that observed for the vehicle-treated control | 64% | 108% | did not alter the amount of time spent climbing | 5% | no impairment in rotarod performance; also recorded: no significant impairment in performance; also recorded: no impairment of performance | 120 mg/kg IP | 
CN(C)CCC=C1c2ccccc2CCc2ccccc21 [AT, amitriptyline, reference compound] |  | 2100 nM |  |  | 3.6 nM |  | 81% | 147% | did not alter the amount of time spent climbing |  | 51±20% | 27 mg/kg IP | 96%
CNCCC=C1c2ccccc2CCc2ccccc21 [NT, nortriptyline, reference compound] |  |  |  |  |  |  |  |  |  |  | 60±14% and 60±40% |  | 
